According to US7858635B2 (priority 2005, dated 2010):

Key:
M1 muscarinic receptor = target: T1, M1 muscarinic receptor (Homo sapiens, UniProt P11229); experiment: Functional mobilization of intracellular calcium (FLIPR, Fluo-3), M1-CHO cells; format: cell-based; details: compound nos. 1-454; for Emax: read-out: M1 Efficacy
T1 construct: expressed in transfected cells; host or cells: CHO cells (M1-CHO, under zeocin and G418 selection)
T1 sequence (P11229 1-460): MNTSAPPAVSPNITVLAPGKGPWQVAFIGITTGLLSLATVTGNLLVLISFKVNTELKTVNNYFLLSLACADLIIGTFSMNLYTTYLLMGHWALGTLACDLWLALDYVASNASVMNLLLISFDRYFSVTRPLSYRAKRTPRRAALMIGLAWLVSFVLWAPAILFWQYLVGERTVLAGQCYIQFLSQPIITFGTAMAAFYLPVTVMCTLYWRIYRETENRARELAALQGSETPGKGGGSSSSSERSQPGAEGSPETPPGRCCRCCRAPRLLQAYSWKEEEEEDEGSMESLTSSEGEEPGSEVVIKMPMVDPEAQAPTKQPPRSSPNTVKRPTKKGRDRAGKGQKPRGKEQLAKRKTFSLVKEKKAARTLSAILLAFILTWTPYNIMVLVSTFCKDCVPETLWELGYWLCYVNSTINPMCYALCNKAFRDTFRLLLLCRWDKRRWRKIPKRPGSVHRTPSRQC
Method in brief: (§1)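 Intracellular calcium was tracked by fluorescence (488/540 nm) over 60 sec after compound addition to dye-loaded CHO cells expressing the receptor. Inhibitory activity used a 15 min pre-incubation before carbachol at the subtype EC80.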

M4 muscarinic receptor = target: T2, M4 muscarinic receptor (Homo sapiens, UniProt P08173); experiment: Functional mobilization of intracellular calcium (FLIPR, Fluo-3), M4-CHO cells; format: cell-based; details: compound nos. 1-454; for Emax: read-out: M4 Efficacy
T2 construct: expressed in transfected cells; host or cells: CHO cells (M4-CHO, under puromycin, zeocin and blasticidin selection)
T2 sequence (P08173 1-479): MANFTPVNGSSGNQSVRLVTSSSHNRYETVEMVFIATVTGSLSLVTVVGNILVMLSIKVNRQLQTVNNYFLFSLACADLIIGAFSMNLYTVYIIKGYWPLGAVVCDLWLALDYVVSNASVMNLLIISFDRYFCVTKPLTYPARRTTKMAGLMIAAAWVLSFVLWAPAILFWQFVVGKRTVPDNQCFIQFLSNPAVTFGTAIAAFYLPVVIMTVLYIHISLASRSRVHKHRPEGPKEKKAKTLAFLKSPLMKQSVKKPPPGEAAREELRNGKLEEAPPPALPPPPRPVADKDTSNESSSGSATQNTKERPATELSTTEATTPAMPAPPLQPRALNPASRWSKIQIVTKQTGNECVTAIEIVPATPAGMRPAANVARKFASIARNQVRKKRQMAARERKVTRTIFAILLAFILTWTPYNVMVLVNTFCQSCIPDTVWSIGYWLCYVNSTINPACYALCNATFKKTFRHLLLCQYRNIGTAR
Method in brief: as §1

[1] = 100% efficacy is the maximum response obtained with the Carbachol control

SMILES	M1 Activity (M1 muscarinic receptor)	Emax (M1 muscarinic receptor; [1]) [%]	M4 Activity (M4 muscarinic receptor)	Emax (M4 muscarinic receptor; [1]) [%]	M1 Efficacy (M1 muscarinic receptor; [1])	M4 Efficacy (M4 muscarinic receptor; [1])
c1ccc2c(c1)NCC21CCN(C2CC3CCC(C3)C2)CC1 (centres unmarked) [compound 420]	++ (activity was measured to be between 0.7 μM and 3.0 μM)	< 65	+ (activity was measured to be greater than or equal to 4.0 μM)	< 55	–	–
CC(=O)NC1CC2(CCN(C[C@@H]3C[C@H]4C=C[C@H]3C4)CC2)c2ccccc21 (some centres unmarked) [compound 421]	+ (activity was measured to be greater than or equal to 3.0 μM)	–	+ (activity was measured to be greater than or equal to 4.0 μM)	–	+ (efficacy was calculated to be 65% or less)	+ (efficacy was calculated to be 55% or less)
COCCOC(=O)N1CC2(CCN(C3CC4CCC(C3)N4C(=O)OC(C)C)CC2)c2cc(F)ccc21 (centres unmarked) [compound 422]	+++ (activity was measured to be less than or equal to 0.7 μM)	< 65	+ (activity was measured to be greater than or equal to 4.0 μM)	< 55	–	–
COC(=O)N1CCC(CN2CCC3(CC2)CN(C(C)=O)c2ccc(C)cc23)CC1 [compound 423]	++ (activity was measured to be between 0.7 μM and 3.0 μM)	< 65	+ (activity was measured to be greater than or equal to 4.0 μM)	< 55	–	–
CC(=O)N1CC2(CCN(C3CCN(C(=O)O[C@@H]4CCOC4)CC3)CC2)c2cc(F)ccc21 [compound 424]	+ (activity was measured to be greater than or equal to 3.0 μM)	< 65	+ (activity was measured to be greater than or equal to 4.0 μM)	< 55	–	–
CC(=O)N1CC2(CCN(C3CCCC(C(F)(F)F)C3)CC2)c2cc(F)ccc21 (centres unmarked) [compound 425]	+ (activity was measured to be greater than or equal to 3.0 μM)	< 65	+ (activity was measured to be greater than or equal to 4.0 μM)	< 55	–	–
CCOC(=O)N1CCC(N2CCC3(CC2)CN(C(C)=O)c2ccc(C4=CCCC4)cc23)CC1 [compound 426]	+ (activity was measured to be greater than or equal to 3.0 μM)	< 65	+ (activity was measured to be greater than or equal to 4.0 μM)	< 55	–	–
CCOC(=O)N1CCC(N2CCC3(CC2)CN(C(=O)OCC)c2ccc(F)cc23)CC1 [compound 427]	++ (activity was measured to be between 0.7 μM and 3.0 μM)	< 65	+ (activity was measured to be greater than or equal to 4.0 μM)	< 55	–	–
CCOC(=O)N1CCC(N2CCC3(CC2)CN(C(=O)O[C@H]2CCOC2)c2ccc(F)cc23)CC1 [compound 428]	++ (activity was measured to be between 0.7 μM and 3.0 μM)	< 65	+ (activity was measured to be greater than or equal to 4.0 μM)	< 55	–	–
Fc1ccc2c(c1)C1(CCN(C[C@@H]3C[C@H]4CC[C@H]3O4)CC1)CN2 [compound 429]	++ (activity was measured to be between 0.7 μM and 3.0 μM)	< 65	+ (activity was measured to be greater than or equal to 4.0 μM)	< 55	–	–
CCOC(=O)N1CCC(N2CCC3(CC2)C[C@H](NC(C)=O)c2ccccc23)CC1 [compound 430]	++ (activity was measured to be between 0.7 μM and 3.0 μM)	< 65	+ (activity was measured to be greater than or equal to 4.0 μM)	< 55	–	–
CC(=O)N1CC2(CCN(C3CCN(c4nccs4)CC3)CC2)c2cc(F)ccc21 [compound 432]	+++ (activity was measured to be less than or equal to 0.7 μM)	65 to 85	+++ (activity was measured to be less than or equal to 0.1 μM)	55 to 70	–	–
CC(=O)N1CC2(CCN(C3CCC4(CC3)CC(C)=NO4)CC2)c2cc(F)ccc21 (centres unmarked) [compound 433]	++ (activity was measured to be between 0.7 μM and 3.0 μM)	65 to 85	++ (activity was measured to be between 0.1 μM and 4.0 μM)	< 55	–	–
CN(C)C(=O)N1CC2(CCN(C3CCN(c4ccccc4F)CC3)CC2)c2cc(F)ccc21 [compound 437]	++ (activity was measured to be between 0.7 μM and 3.0 μM)	65 to 85	++ (activity was measured to be between 0.1 μM and 4.0 μM)	< 55	–	–
CN(C)C(=O)N1CC2(CCN(C3CCN(c4cccc(F)c4)CC3)CC2)c2cc(F)ccc21 [compound 438]	++ (activity was measured to be between 0.7 μM and 3.0 μM)	65 to 85	+++ (activity was measured to be less than or equal to 0.1 μM)	55 to 70	–	–
CN(C)C(=O)N1CC2(CCN(C3CCN(c4ccc(F)cc4)CC3)CC2)c2cc(F)ccc21 [compound 439]	++ (activity was measured to be between 0.7 μM and 3.0 μM)	65 to 85	+++ (activity was measured to be less than or equal to 0.1 μM)	< 55	–	–
COc1ccccc1N1CCC(N2CCC3(CC2)CN(C(=O)N(C)C)c2ccc(F)cc23)CC1 [compound 440]	++ (activity was measured to be between 0.7 μM and 3.0 μM)	65 to 85	++ (activity was measured to be between 0.1 μM and 4.0 μM)	55 to 70	–	–
COc1cccc(N2CCC(N3CCC4(CC3)CN(C(=O)N(C)C)c3ccc(F)cc34)CC2)c1 [compound 441]	++ (activity was measured to be between 0.7 μM and 3.0 μM)	65 to 85	+++ (activity was measured to be less than or equal to 0.1 μM)	55 to 70	–	–
COc1ccc(N2CCC(N3CCC4(CC3)CN(C(=O)N(C)C)c3ccc(F)cc34)CC2)cc1 [compound 442]	++ (activity was measured to be between 0.7 μM and 3.0 μM)	65 to 85	++ (activity was measured to be between 0.1 μM and 4.0 μM)	55 to 70	–	–
COc1ccc(F)cc1N1CCC(N2CCC3(CC2)CN(C(=O)N(C)C)c2ccc(F)cc23)CC1 [compound 443]	++ (activity was measured to be between 0.7 μM and 3.0 μM)	65 to 85	++ (activity was measured to be between 0.1 μM and 4.0 μM)	55 to 70	–	–
CN(C)C(=O)N1CC2(CCN(C3CCN(c4cnccn4)CC3)CC2)c2cc(F)ccc21 [compound 444]	+++ (activity was measured to be less than or equal to 0.7 μM)	65 to 85	+++ (activity was measured to be less than or equal to 0.1 μM)	55 to 70	–	–
CN(C)C(=O)N1CC2(CCN(C3CCN(c4ncccn4)CC3)CC2)c2cc(F)ccc21 [compound 445]	++ (activity was measured to be between 0.7 μM and 3.0 μM)	65 to 85	+++ (activity was measured to be less than or equal to 0.1 μM)	55 to 70	–	–
CN(C)C(=O)N1CC2(CCN(C3CCN(c4cncnc4)CC3)CC2)c2cc(F)ccc21 [compound 446]	++ (activity was measured to be between 0.7 μM and 3.0 μM)	65 to 85	+++ (activity was measured to be less than or equal to 0.1 μM)	55 to 70	–	–
